Experimental data taken from PMC2074469.

How the values were obtained:
[1] = tested on: adrenal gland steroidogenesis; settings: cited from earlier work
[2] = cited from earlier work
aromatase [3] = target: T1, aromatase (Homo sapiens, UniProt P11511); settings: cited from earlier work
T1 construct: from tissue; host or cells: peripheral tissues of healthy post-menopausal female volunteers (in vivo; serum oestrogens measured)
T1 sequence (P11511 1-503): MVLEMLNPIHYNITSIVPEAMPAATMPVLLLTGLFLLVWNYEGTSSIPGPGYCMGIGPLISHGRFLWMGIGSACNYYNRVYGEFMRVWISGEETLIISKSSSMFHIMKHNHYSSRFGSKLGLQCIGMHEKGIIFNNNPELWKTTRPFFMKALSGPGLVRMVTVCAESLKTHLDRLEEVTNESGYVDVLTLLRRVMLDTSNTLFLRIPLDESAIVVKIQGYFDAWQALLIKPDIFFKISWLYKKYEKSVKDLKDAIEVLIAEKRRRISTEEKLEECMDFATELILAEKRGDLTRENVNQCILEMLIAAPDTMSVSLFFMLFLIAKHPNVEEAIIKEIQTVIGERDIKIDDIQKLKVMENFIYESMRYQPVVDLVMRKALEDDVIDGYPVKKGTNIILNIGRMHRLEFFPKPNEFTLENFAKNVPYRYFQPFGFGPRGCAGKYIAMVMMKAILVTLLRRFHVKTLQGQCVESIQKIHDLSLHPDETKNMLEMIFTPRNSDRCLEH

clinical = settings: female, human, plasma, oral; for half-life: mean half-life
[4] = tested on: steroid response to ACTH challenge; experiment: ACTH stimulation test (synacthen), trial 1 study day 10; format: in vivo, human; settings: 3 mg, 30 and 60 min after ACTH
Experimental: (§1) Summary Two multiple-dose studies were conducted in healthy post-menopausal female volunteers to investigate the pharmacokinetics and effects on endocrinology of Arimidex (ZD1033). Volunteers in the first trial were dosed with 3 mg of ZD1033 daily over 10 days to assess the effects on endocrinology of ZD1033 and establish the pharmacokinetic profile. In the second trial volunteers received 14 daily doses of either 0.5 or 1.0 mg of ZD1033 to assess the pharmacokinetics of ZD1033 and the effects of low doses of ZD1033 on serum oestradiol concentrations. […] Keywords: Arimidex; aromatase inhibitor; oestrogen Breast cancer is the most common type of cancer in women, accounting for 10% of all female cancers. […] ZD1033 is an achiral benzyltriazole derivative, 2,2[5-(1 H- 12,4-triazol- I -ylmethyl)- 1,3-phenylene] bis (2- methyl-propriononitrile) (Figure 1). […] ZD1033 is currently being evaluated in identical phase III efficacy and tolerability studies vs megestrol acetate in post- menopausal women with advanced breast cancer in the USA and Europe. This paper describes two studies that investigated the pharmacokinetic profile, selectivity, tolerability and efficacy in oestradiol suppression of multiple doses of ZD1033. The objective of the studies was to determine the minimum dose required for maximal suppression of circulating oestradiol, while retaining selectivity for the aromatase enzyme. […]

gonadotrophin release = experiment: Serum pituitary hormones, trial 1 (ACTH, LH, FSH); format: in vivo, human; settings: for scaled FSH: percentage change of scaled geometric mean relative to placebo / scaled LH: percentage change of scaled geometric mean relative to placebo: 3 mg
Experimental: (§2) Summary Two multiple-dose studies were conducted in healthy post-menopausal female volunteers to investigate the pharmacokinetics and effects on endocrinology of Arimidex (ZD1033). Volunteers in the first trial were dosed with 3 mg of ZD1033 daily over 10 days to assess the effects on endocrinology of ZD1033 and establish the pharmacokinetic profile. In the second trial volunteers received 14 daily doses of either 0.5 or 1.0 mg of ZD1033 to assess the pharmacokinetics of ZD1033 and the effects of low doses of ZD1033 on serum oestradiol concentrations. […] Keywords: Arimidex; aromatase inhibitor; oestrogen Breast cancer is the most common type of cancer in women, accounting for 10% of all female cancers. […] ZD1033 is an achiral benzyltriazole derivative, 2,2[5-(1 H- 12,4-triazol- I -ylmethyl)- 1,3-phenylene] bis (2- methyl-propriononitrile) (Figure 1). […] ZD1033 is currently being evaluated in identical phase III efficacy and tolerability studies vs megestrol acetate in post- menopausal women with advanced breast cancer in the USA and Europe. This paper describes two studies that investigated the pharmacokinetic profile, selectivity, tolerability and efficacy in oestradiol suppression of multiple doses of ZD1033. The objective of the studies was to determine the minimum dose required for maximal suppression of circulating oestradiol, while retaining selectivity for the aromatase enzyme. […] Methods The two trials were randomised, double-blind, placebo- controlled multiple-dose studies in healthy post-menopausal female volunteers aged between 45 and 62 years (inclusive). Both trials had the same entry criteria and were of similar design. In the first study (trial 1), a total of eight volunteers were given eight doses of 3 mg of ZD1033 over 10 days to assess tolerability, pharmacokinetics and effects on endocrinology. In the second study (trial 2) a total of 14 volunteers were given 0.5 and 1 mg doses of ZD1033 daily for 14 days to assess the tolerability, pharmacokinetics and effect on serum oestradiol concentrations only. […] The key inclusion criteria were: at least one intact ovary; cervical smear negative for malignancy within the previous 12 months; normal clinical laboratory parameters and; normal clinical examination. Key exclusion criteria were a history of malignant breast disease or previous hysterectomy as a result of malignancy. […] A dose of 3 mg ZD1033 or matching placebo was then given on the following 7 consecutive days (study days 4-10). […] Samples for assay of serum aldosterone, cortisol, 17- hydroxyprogesterone (17-HP), dehydroepiandrosterone sul- phate (DHEA-S), luteinising hormone (LH), FSH and adrenocorticotrophic hormone (ACTH) were collected before and 3 h after dosing on study days 1 and 10 of both treatment periods. Additional samples for cortisol assay were also collected before dosing on study days 3, 5, 7 and 9 in both treatment periods. An ACTH stimulation test was performed 3 h after the dose on study day 10.

[5] = human, in vivo
Experimental: as §1

aromatase [6] = target: T1, aromatase; experiment: Serum oestrone suppression, trial 1 (3 mg of ZD1033 vs placebo); format: in vivo
Experimental: as §2

adrenal steroidogenesis = experiment: Serum adrenal steroid concentrations, trial 1 (cortisol, aldosterone, 17-HP, androstenedione, DHEA-S); format: in vivo, human
Experimental: as §2

aromatase [7] = target: T1, aromatase; experiment: Serum oestradiol suppression in healthy post-menopausal female volunteers (trials 1 and 2); format: in vivo; settings: for women with serum oestradiol below the limit of detection of the assay: limit of detection 3 pmol l-1; for mean BS oestradiol concentration 24 h after dosing on days 13 and 14, adjusted geometric mean / BS oestradiol AUC days 1-14, adjusted geometric mean: baseline-scaled; for BS oestradiol AUC days 1-14, adjusted geometric mean: normalised by time; for mean post-dose scaled oestradiol suppression compared with baseline: mean of 24 h after doses on days 13 and 14
Experimental: as §2

[8] = 3 mg vs placebo, not statistically significant

CCC1(c2ccc(N)cc2)CCC(=O)NC1=O (centres unmarked) [aminoglutethimide]
selectivity for the aromatase enzyme ([1]; 250 mg q.i.d., also inhibits adrenal gland steroidogenesis, ref Lonning and Johannessen, 1991): non-selective
toxicity ([2]; ref Lonning and Johannessen, 1991): marked toxicity

C[C@]12CCC(=O)C(O)=C1CC[C@@H]1[C@@H]2CC[C@]2(C)C(=O)CC[C@@H]12 [formestane]
oestradiol suppression (aromatase [3]; in vivo): 49- 64%
adverse reactions ([2]; 250 mg i.m. once every 2 weeks, ref Hoffken et al., 1993): injection site reactions

N#Cc1ccc(C(c2ccc(C#N)cc2)n2cncn2)cc1 [letrozole]
reduction in oestradiol levels (aromatase [3]; ref Iveson et al., 1993): up to 86%
selectivity: interference with adrenal steroidogenesis ([1]; in vivo): no reports of letrozole interfering

CC(C)(C#N)c1cc(Cn2cncn2)cc(C(C)(C)C#N)c1 [ZD1033, 2,2[5-(1 H-12,4-triazol-I -ylmethyl)-1,3-phenylene] bis (2-methyl-propriononitrile)]
Cmax (clinical; 0.5 mg): 5.97 ng/mL
Tmax (clinical; 0.5 mg): 2 h
half-life (clinical; 0.5 mg): 45.7 h
Cmax (clinical; 1 mg): 13.7 ng/mL
Tmax (clinical; 1 mg): 2 h
half-life (clinical; 1 mg): 40.6 h
Tmax (clinical; 3 mg): 3 h
half-life (clinical; 3 mg, after the first dose of 3 mg): 50.7 h
half-life (clinical; 3 mg, after the last dose of 3 mg): 45.4 h
difference of 17-HP after ACTH stimulation from values obtained on placebo [4]: up to 12%
difference of cortisol after ACTH stimulation from values obtained on placebo [4]: up to 12%
effect on ACTH, LH or FSH (gonadotrophin release; 3 mg vs placebo): None of the data suggested an effect
scaled FSH: percentage change of scaled geometric mean relative to placebo (gonadotrophin release; Day 1, 3 h after dose): 0.01%
scaled LH: percentage change of scaled geometric mean relative to placebo (gonadotrophin release; Day 1, 3 h after dose): -9.5%
scaled FSH: percentage change of scaled geometric mean relative to placebo (gonadotrophin release; Day 10, 3 h after dose): -3.4%
scaled LH: percentage change of scaled geometric mean relative to placebo (gonadotrophin release; Day 10, 3 h after dose): 12.2%
scaled FSH: percentage change of scaled geometric mean relative to placebo (gonadotrophin release; Day 10, pre-dose): 1.54%
scaled LH: percentage change of scaled geometric mean relative to placebo (gonadotrophin release; Day 10, pre-dose): -9.3%
changes in blood pressure, pulse rate or ECG [5]: no evidence of changes
scaled oestrone: percentage reduction in geometric mean relative to placebo (aromatase [6]; 96 h after dose on day 10): 39.7%
scaled oestrone: percentage reduction in geometric mean relative to placebo (aromatase [6]; Day 2): 36.2%
scaled oestrone: percentage reduction in geometric mean relative to placebo (aromatase [6]; Day 3): 29.4%
scaled oestrone: percentage reduction in geometric mean relative to placebo (aromatase [6]; Day 4): 34.6%
scaled oestrone: percentage reduction in geometric mean relative to placebo (aromatase [6]; Day 6): 41.1%
scaled oestrone: percentage reduction in geometric mean relative to placebo (aromatase [6]; Day 8): 34.8%
scaled oestrone: percentage reduction in geometric mean relative to placebo (aromatase [6]; Day 10): 44.9%
maximal suppression of mean serum oestrone compared with placebo values (aromatase [6]; from study day 6 onwards): approximately 40%
recovery of serum oestrone after the last dose (aromatase [6]; up to 96 h after the last dose): no recovery apparent by 96 h after the last dose
alteration in mean serum concentration of DHEA-S relative to placebo (adrenal steroidogenesis; 3 mg): No clinically significant alterations
change in mean serum concentration of cortisol (adrenal steroidogenesis; 3 mg vs placebo): No statistically significant changes
change in mean serum concentration of 17-HP (adrenal steroidogenesis; [8]): no consistent changes
change in mean serum concentration of aldosterone (adrenal steroidogenesis; [8]): no consistent changes
change in mean serum concentration of androstenedione (adrenal steroidogenesis; [8]): no consistent changes
scaled 17-HP: percentage change of scaled geometric mean relative to placebo (adrenal steroidogenesis; 3 mg, Day 1, 3 h after dose): -26.9%
scaled aldosterone: percentage change of scaled geometric mean relative to placebo (adrenal steroidogenesis; 3 mg, Day 1, 3 h after dose): -12.9%
scaled 17-HP: percentage change of scaled geometric mean relative to placebo (adrenal steroidogenesis; 3 mg, Day 10, 3 h after dose): 48.9%
scaled aldosterone: percentage change of scaled geometric mean relative to placebo (adrenal steroidogenesis; 3 mg, Day 10, 3 h after dose): 21.0%
scaled 17-HP: percentage change of scaled geometric mean relative to placebo (adrenal steroidogenesis; 3 mg, Day 10, pre-dose): 3.8%
scaled aldosterone: percentage change of scaled geometric mean relative to placebo (adrenal steroidogenesis; 3 mg, Day 10, pre-dose): 24.6%
reduction in serum oestradiol levels (to the limit of detection of the available assay) (aromatase [7]; 1 mg daily p.o.): > 80%
reduction in concentration of serum oestradiol of baseline following multiple dosing (aromatase [7]; all three doses (0.5, 1.0, 3 mg daily)): approximately 80%
minimal dose required for maximal suppression of oestradiol (aromatase [7]; from number of volunteers below assay limit of detection 24 h after last dose): 1.0 mg
decrease of oestradiol concentration compared with placebo values (aromatase [7]; trial 1, 3 mg daily days 4-10, by day 8, P = 0.004): approximately 80%
oestradiol suppression compared with placebo values (aromatase [7]; trial 1, 3 mg, 24 h after the last dose): 70%
reduction of mean serum oestradiol concentration compared with placebo (aromatase [7]; trial 1, 3 mg, by 48 h after the first dose, P = 0.001): approximately 70%
recovery of serum oestradiol after first dose (aromatase [7]; trial 1, single 3 mg dose, up to 72 h): no recovery apparent by 72 h
reduction of mean scaled oestradiol AUC 24 h after dosing on days 1-14 (aromatase [7]; trial 2, 0.5 mg daily): 82%
women with serum oestradiol below the limit of detection of the assay (aromatase [7]; trial 2, 0.5 mg daily, 24 h after the last dose): one out of six
mean post last dose oestradiol concentration (aromatase [7]; trial 2, 0.5 mg daily, baseline mean 46 pmol l-1): 5.9 pmol/L
mean BS oestradiol concentration 24 h after dosing on days 13 and 14, adjusted geometric mean (aromatase [7]; trial 2, 0.5 mg daily): 0.156
BS oestradiol AUC days 1-14, adjusted geometric mean (aromatase [7]; trial 2, 0.5 mg daily): 0.175
mean post-dose scaled oestradiol suppression compared with baseline (aromatase [7]; trial 2, 0.5 mg daily): 84%
reduction of mean scaled oestradiol AUC 24 h after dosing on days 1-14 (aromatase [7]; trial 2, 1.0 mg daily): 84%
women with serum oestradiol below the limit of detection of the assay (aromatase [7]; trial 2, 1 mg daily, 24 h after the last dose): five out of seven
mean post last dose oestradiol concentration (aromatase [7]; trial 2, 1.0 mg daily, baseline mean 28 pmol l-1): 3.2 pmol/L
mean BS oestradiol concentration 24 h after dosing on days 13 and 14, adjusted geometric mean (aromatase [7]; trial 2, 1.0 mg daily): 0.138
BS oestradiol AUC days 1-14, adjusted geometric mean (aromatase [7]; trial 2, 1.0 mg daily): 0.160
mean post-dose scaled oestradiol suppression compared with baseline (aromatase [7]; trial 2, 1.0 mg daily): 86%
duration of suppression of mean oestradiol concentrations (aromatase [7]; trial 2, 0.5 and 1 mg daily for 14 days): remained suppressed from 3 h after the first dose to 6 days after the last dose
treatment effect (ratio 0.5 - 1.0 mg), BS oestradiol AUC days 1-14 (aromatase [7]; trial 2, 95% confidence (0.52, 2.30), P 0.794): 1.09
treatment effect (ratio 0.5 - 1.0 mg), mean BS oestradiol days 13 and 14 (aromatase [7]; trial 2, 95% confidence (0.55, 2.33), P 0.713): 1.13
recovery in oestradiol after the last dose (aromatase [7]; up to 144 h after the last dose): no recovery
